Results as given in ChEMBL document CHEMBL1201862, “PubChem BioAssay data set” (2004).
Calls of active or inactive are those of the source.

What was measured:
[1] = M. tuberculosis growth inhibition in 7H9, dose response, 7H9 media, purified and synthesized samples, set 3 (AID 504646); format: functional
[2] = molecular target: Mitochondrial peptide methionine sulfoxide reductase (Bos taurus, UniProt P54149); test: Absorbance-based biochemical high throughput dose response assay for activators of Methionine sulfoxide reductase A (MsrA).; format: functional
[3] = molecular target: T1, Sentrin-specific protease 1 (Homo sapiens, UniProt Q9P0U3); test: SENP1 catalytic domain blockers, concentration series – biochemical, kinetic FRET, dose response (AID 651697); format: functional; conditions: read-out: IC50_Mean
[4] = molecular target: T1, Sentrin-specific protease 1; test: Dose response confirmation of small molecule inhibitors of the catalytic domain of the SUMO protease, SENP1 in a FRET assay.; format: functional; conditions: read-out: IC50_Mean
[5] = molecular target: T2, ATP-dependent translocase ABCB1 (Homo sapiens, UniProt P08183); test: inhibition of BCRP-mediated JC-1 efflux – Ig-MXP3 cells, flow cytometry, set 2, dose response (AID 504566); format: functional; conditions: read-out: EC50_MICROM_;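 note: flow cytometry median green fluorescence of retained JC-1 dye; potency of efflux pump inhibition measured as rising substrate retention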
[6] = molecular target: T2, ATP-dependent translocase ABCB1; test: P-gp JC-1 efflux blockade concentration-response – Jurkat-DNR cells, flow cytometry, set 2, dose response (AID 504569); format: functional; conditions: read-out: EC50_MICROM_;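 note: potency of pump inhibitors that raise cellular JC-1 green fluorescence up to the nicardipine level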
[7] = molecular target: Photoreceptor-specific nuclear receptor (Homo sapiens, UniProt Q9Y5X4); format: functional, cell-based;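 note: CHO-S cells with Gal4-NCOR and VP16-NR2E3 two-hybrid luciferase reporter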
[8] = molecular target: T3, Eukaryotic translation initiation factor 2-alpha kinase 3 (Homo sapiens, UniProt Q9NZJ5); test: Dose response cell-based high-throughput screening assay to measure PERK inhibition. [Related pubchem assays: 1416 ]; format: functional
T3 sequence (Q9NZJ5 whole entry): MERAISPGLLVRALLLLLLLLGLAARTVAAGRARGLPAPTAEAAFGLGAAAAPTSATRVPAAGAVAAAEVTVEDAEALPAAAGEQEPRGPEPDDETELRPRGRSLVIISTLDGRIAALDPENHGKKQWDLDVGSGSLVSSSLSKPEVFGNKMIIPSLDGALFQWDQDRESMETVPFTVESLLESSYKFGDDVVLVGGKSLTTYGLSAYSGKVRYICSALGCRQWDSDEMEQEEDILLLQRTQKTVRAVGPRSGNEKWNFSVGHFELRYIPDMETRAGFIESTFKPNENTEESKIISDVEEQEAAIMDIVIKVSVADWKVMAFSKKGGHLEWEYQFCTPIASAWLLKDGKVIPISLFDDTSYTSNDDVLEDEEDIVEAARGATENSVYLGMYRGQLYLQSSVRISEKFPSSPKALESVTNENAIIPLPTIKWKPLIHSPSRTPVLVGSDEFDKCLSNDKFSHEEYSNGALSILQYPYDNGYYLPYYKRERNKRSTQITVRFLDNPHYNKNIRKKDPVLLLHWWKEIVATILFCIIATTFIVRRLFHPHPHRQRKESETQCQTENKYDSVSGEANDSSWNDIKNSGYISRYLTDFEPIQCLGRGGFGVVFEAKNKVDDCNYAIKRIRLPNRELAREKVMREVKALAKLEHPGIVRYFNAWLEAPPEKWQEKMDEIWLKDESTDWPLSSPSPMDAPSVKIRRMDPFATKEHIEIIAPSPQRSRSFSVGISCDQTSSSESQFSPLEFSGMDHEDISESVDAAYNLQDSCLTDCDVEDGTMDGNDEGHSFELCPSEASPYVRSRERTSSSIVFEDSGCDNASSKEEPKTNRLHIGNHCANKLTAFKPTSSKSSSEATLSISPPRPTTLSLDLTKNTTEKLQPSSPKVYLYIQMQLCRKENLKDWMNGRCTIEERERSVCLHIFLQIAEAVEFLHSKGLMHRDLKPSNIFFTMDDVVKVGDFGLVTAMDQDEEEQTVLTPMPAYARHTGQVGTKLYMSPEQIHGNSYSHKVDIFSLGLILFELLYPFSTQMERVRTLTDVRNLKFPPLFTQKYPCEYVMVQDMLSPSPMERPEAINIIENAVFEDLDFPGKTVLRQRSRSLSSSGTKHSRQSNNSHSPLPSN

[9] = tested on: INS1; test: INS-1E survival protection against cytokine death – cell-based, luminescence, retest, dose response (AID 449756); format: functional; conditions: Rattus norvegicus;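 note: cell death triggered by IL-1 beta plus TNF-alpha plus IFN-gamma mixture; protective hits raise ATP signal compared with cytokine alone wells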
[10] = molecular target: T3, Eukaryotic translation initiation factor 2-alpha kinase 3; test: Counterscreen assay for PERK inhibitors: Dose response cell-based high throughput screening assay to measure inhibition of PERK at 6 hours. [Related pubchem assays: 1522, 1416 ]; format: functional
[11] = blockers of HIV-1 envelope-mediated cell-cell fusion – cherry-pick, dose response (AID 652057); format: functional, cell-based
[12] = molecular target: T4, Interleukin-8 (Homo sapiens, UniProt P10145); test: Dose Response confirmation of uHTS small molecule hits for cystic fibrosis induced NFkb Inhibitors in a PAF-induced IL8 counterscreen.; format: functional; conditions: read-out: IC50_Mean
T4 sequence (P10145 whole entry): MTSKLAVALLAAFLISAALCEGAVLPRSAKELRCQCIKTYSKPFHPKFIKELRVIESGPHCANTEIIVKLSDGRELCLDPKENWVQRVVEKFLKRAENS

[13] = off-target signal loss in HeLa-CEM21 co-culture – HeLa F-luc CTL cells, cherry-picked, counter-screen for HIV-1 Env fusion inhibitor project, dose response (AID 652040); format: functional, cell-based;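 note: potency for signal decrease marking cytotoxic or nonspecific inhibition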
[14] = molecular target: T5, Protein skinhead-1 (Caenorhabditis elegans, UniProt P34707); format: functional
T5 sequence (P34707 whole entry): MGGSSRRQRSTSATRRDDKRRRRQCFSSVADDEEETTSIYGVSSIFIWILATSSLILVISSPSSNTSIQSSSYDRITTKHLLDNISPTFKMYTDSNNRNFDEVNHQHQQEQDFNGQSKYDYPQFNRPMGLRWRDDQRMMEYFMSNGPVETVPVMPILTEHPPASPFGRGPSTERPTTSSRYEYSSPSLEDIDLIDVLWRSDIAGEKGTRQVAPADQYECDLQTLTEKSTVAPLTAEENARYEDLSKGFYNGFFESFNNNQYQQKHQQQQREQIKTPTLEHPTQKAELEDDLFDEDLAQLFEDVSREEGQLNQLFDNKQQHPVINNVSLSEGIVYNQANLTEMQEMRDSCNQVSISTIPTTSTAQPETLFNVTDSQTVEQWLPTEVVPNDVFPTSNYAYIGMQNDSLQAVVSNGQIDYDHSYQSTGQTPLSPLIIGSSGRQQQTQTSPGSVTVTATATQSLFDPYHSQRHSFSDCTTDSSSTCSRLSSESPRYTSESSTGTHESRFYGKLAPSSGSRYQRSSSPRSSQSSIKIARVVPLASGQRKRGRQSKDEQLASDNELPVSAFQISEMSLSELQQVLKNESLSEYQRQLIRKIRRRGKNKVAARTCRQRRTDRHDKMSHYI

[15] = HIV-1 AD8 envelope cell-cell fusion blockers – cherry-pick, dose response (AID 652062); format: functional, cell-based;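 note: luciferase signal from cell-cell fusion driven by HIV-1 clade B AD8 Env; potency is for inhibitors of fusion seen as a drop in luminescence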
[16] = blockers of HIV-1 ZM109 envelope-driven cell-cell fusion – HeLa effector, CEM target cells, luciferase, cherry-pick, dose response (AID 652058); format: functional, cell-based;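 note: luciferase signal from HIV-1 Env mediated cell-cell fusion of effector and target cells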
[17] = molecular target: T4, Interleukin-8; test: Dose Response confirmation of uHTS small molecule hits for cystic fibrosis induced NFkb Inhibitors in a TNFa-induced IL8 counterscreen.; format: functional; conditions: read-out: IC50_Mean

T1 sequence (Q9P0U3 whole entry, the tested form may be a part): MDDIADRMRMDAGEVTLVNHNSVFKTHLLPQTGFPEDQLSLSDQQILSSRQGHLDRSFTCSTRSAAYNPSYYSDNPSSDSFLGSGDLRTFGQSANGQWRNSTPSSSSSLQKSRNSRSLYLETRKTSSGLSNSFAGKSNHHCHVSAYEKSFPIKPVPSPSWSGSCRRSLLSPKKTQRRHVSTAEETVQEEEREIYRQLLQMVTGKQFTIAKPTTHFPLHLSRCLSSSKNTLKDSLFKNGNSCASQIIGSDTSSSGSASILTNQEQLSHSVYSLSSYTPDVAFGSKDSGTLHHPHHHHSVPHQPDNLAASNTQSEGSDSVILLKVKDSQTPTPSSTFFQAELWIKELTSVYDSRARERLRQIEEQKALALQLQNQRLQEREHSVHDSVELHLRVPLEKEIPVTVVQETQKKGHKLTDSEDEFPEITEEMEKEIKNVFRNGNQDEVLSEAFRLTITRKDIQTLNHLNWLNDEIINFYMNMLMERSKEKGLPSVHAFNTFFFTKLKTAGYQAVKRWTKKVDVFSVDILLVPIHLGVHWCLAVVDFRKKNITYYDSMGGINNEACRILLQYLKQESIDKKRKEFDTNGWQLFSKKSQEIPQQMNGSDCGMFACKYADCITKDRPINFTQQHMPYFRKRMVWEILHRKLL
T2 sequence (P08183 whole entry): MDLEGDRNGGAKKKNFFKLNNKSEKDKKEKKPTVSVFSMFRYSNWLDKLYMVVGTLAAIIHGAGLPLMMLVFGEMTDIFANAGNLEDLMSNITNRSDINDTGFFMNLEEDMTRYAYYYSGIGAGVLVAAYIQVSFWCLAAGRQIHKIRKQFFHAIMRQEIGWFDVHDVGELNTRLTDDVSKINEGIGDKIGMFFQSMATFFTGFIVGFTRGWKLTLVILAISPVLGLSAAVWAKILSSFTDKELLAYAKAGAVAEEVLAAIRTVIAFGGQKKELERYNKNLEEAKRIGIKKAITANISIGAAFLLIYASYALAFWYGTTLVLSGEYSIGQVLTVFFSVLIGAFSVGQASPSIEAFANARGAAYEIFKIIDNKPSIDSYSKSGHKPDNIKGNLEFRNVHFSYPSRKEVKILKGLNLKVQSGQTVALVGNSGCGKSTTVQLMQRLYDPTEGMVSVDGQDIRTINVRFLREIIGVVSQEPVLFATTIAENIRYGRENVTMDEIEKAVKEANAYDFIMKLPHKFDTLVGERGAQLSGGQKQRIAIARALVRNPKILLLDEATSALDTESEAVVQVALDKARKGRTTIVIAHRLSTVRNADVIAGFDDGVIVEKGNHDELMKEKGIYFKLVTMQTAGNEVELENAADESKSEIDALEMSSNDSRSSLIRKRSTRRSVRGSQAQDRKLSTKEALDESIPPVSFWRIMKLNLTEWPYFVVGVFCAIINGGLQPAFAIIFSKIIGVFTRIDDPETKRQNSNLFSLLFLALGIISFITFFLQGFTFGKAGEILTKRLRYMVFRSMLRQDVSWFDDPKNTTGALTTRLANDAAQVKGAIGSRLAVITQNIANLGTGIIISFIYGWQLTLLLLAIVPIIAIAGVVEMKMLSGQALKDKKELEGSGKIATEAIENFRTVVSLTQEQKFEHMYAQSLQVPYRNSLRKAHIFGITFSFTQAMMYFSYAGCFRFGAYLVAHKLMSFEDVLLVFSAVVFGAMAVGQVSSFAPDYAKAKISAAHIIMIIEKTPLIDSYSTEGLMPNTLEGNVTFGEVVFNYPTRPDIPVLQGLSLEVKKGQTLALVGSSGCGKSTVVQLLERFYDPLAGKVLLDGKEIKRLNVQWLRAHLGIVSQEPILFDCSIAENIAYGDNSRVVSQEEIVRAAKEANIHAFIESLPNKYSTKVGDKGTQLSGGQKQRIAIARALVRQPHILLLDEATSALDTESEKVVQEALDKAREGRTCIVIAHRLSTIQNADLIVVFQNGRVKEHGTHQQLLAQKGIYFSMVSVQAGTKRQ
Sequence of Mitochondrial peptide methionine sulfoxide reductase (P54149 whole entry, the tested form may be a part): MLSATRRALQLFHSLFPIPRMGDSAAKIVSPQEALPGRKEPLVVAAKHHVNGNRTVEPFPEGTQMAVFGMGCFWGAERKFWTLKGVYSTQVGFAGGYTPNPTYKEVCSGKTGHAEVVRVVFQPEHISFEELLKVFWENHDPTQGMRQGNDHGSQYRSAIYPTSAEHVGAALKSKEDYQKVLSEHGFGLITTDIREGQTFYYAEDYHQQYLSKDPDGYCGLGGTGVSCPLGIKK
Sequence of Photoreceptor-specific nuclear receptor (Q9Y5X4 whole entry, the tested form may be a part): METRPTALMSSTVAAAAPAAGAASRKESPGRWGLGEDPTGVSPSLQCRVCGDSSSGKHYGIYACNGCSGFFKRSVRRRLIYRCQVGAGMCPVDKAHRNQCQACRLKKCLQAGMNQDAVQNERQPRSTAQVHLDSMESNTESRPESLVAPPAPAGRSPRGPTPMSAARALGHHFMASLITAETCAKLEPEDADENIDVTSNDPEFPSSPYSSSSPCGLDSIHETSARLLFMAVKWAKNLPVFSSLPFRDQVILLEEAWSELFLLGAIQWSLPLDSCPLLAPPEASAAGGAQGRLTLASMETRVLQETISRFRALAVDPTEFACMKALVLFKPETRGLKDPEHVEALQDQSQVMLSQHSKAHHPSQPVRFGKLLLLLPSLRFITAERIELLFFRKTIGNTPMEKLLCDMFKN

## O=C(NCC1COc2ccccc2O1)C1CCC(CNc2c(N3CCCCC3)c(=O)c2=O)CC1 (configuration not stated)
[1]
  IC50: > 25 µM (active)

## CC(C)[C@H](NC(=O)c1ccccc1)C(=O)OCc1nc2scc(-c3ccccc3)c2c(=O)[nH]1
[2]
  EC50: > 104 µM (inactive)

## N#C/C(=C\c1cc2ccccc2nc1N1CCCCC1)C(N)=O
[3]
  IC50: 53.2 µM (inactive)
[4]
  IC50: 25.8 µM (inactive)

## Cc1ccc(-c2cc3nc(-c4ccccc4)cc(N4CCN(C(=O)c5ccoc5)CC4)n3n2)cc1
[5]
  EC50: 0.81 µM (active)
[6]
  EC50: 0.66 µM (active)

## CCC1(OC(=O)CN)C(=O)OCc2c1cc1n(c2=O)Cc2cc3ccccc3nc2-1 (configuration not stated)
[7]
  IC50: 1.23 µM (active)
[8]
  EC50: > 55.7 µM (not active)
[9]
  AC50: 2.25 µM (active)
[10]
  EC50: > 55.7 µM (not active)

## CC1(Cc2ccc(Cl)cc2)C(=O)Nc2ccc(-c3cccnc3)cc21 (configuration not stated)
[11]
  AC50: 1.96 µM (active)
[12]
  IC50: 15.6 µM (inactive)
[13]
  AC50: 6.69 µM (active)
[14]
  IC50: 19.5 µM (active)
[15]
  AC50: 3.3 µM (active)
[16]
  AC50: 4.18 µM (active)
[17]
  IC50: 41.1 µM (inactive)
